Reference: patent US11896592B2, “Certain triazolopyridines and triazolopyrazines, compositions thereof and methods of use therefor” (Hutchison Medipharma Limited, priority 2009, dated 2024)
pIC50: −log10 of the molar value.

Target: T1, Recombinant human Met (c-Met) (Homo sapiens, UniProt P08581)
T1 construct: purchased Invitrogen PV3143
Experiment: Inhibition of c-Met kinase activity using Transcreener FP assay
Format: biochemical
Conditions: IC50, inhibition of c-Met kinase activity, Poly E4Y substrate, 28° C. 45 min
Method: Compound dilution: dilute test articles to 5 folds of the testing concentration using 20% DMSO.
The mixture is kept on ice until use;
Prepare ATP standard curve stock as following:
3. Enzymatic reaction: in 96-well reaction plate
Add 5 μL of test article or 5 μL of 20% DMSO or 5 μL of 500 mM EDTA;
Add 10 μL of Enzyme/Substrate stock;
Add 10 μL of ATP Diluent to begin the enzyme reaction and mix on plate shaker;
Add 5 μL of 20% DMSO, 10 μL of assay buffer and 10 μL of ATP standard curve stock into standard curve wells;
Gently shake at 28° C. for 45 min.
4. Stop reaction and detect ADP
Prepare Detection Mix: According to the procedures described in the Assay kit, Alexa633 tracer, ADP antibody and stop & detect buffer were added into H2O and mixed thoroughly. Prepare Tracer Only control: According to the procedures described in the Assay kit, ADP Alexa633 tracer and stop & detect buffer were added to H2O and mixed throughly.
Prepare No Tracer control: According to the procedures described in the Assay kit, the stop & detect buffer was diluted with H2O;
Add 25 μL of detection mix, Tracer Only control and No Tracer control into corresponding wells, respectively;
The reaction plate was gently shaken at 28° C. for 1 h;
Florescence polarization (FP) was measured on TECAN F500. Excitation wavelength: 610 nm, Emission wavelength: 670 nm.
Compound well [ADP] represents the ADP concentration of the compound well. Positive control well [ADP] represents the ADP concentration of the 20% DMSO well. Conversion of mP value to ADP concentration is based on the formula which is determined by standard curve.
IC50: calculated using XL-Fit 2.0 software.

T1 sequence (P08581 956-1390 limits assumed): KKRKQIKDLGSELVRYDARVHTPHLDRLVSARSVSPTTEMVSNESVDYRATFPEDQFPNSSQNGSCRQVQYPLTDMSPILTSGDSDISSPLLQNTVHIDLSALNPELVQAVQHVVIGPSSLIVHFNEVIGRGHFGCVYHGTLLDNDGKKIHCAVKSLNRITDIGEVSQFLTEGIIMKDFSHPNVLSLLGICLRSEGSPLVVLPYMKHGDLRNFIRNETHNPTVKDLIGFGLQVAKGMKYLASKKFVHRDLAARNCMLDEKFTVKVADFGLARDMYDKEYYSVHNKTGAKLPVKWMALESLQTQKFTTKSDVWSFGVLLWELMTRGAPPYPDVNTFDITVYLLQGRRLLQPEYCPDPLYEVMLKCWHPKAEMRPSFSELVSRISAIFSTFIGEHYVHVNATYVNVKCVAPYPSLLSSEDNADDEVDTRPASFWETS

pIC50	Structure (SMILES)
7.00 to 9.00	CC(c1ccc2nccn2c1)n1nnc2ncc(-c3cnn(C)c3)nc21 (racemic) [Compound 331]

Same assay, conditions: Poly E4Y substrate, 28° C. 45 min, read-out: IC50, inhibition of c-Met kinase activity

Structure (SMILES)	pIC50
CC1N=CC(c2cnc3nnn(Cc4cc5cccnc5s4)c3n2)=N1 (stereo not shown) [Compound 2]	6.00 to 7.00
OCCn1cc(-c2cnc3nnn(Cc4cc5cccnc5s4)c3n2)cn1 [Compound 5]	6.00 to 7.00
c1csc(-c2cnc3nnn(Cc4cc5cccnc5s4)c3n2)c1 [Compound 6]	6.00 to 7.00
c1nn(C2CCNCC2)cc1-c1cnc2nnn(Cc3cc4[nH]ncc4s3)c2n1 [Compound 17]	6.00 to 7.00
c1cc2sc(Cn3nnc4ncc(-c5cnn(C6CCNCC6)c5)nc43)cc2cn1 [Compound 18]	6.00 to 7.00
c1cc2sc(Cn3nnc4ncc(-c5cnn(C6CCOCC6)c5)nc43)cc2cn1 [Compound 22]	6.00 to 7.00
COCCn1cc(-c2cnc3nnn(Cc4cc5cnccc5s4)c3n2)cn1 [Compound 23]	6.00 to 7.00
OCCn1cc(-c2cnc3nnn(Cc4csc5ncccc45)c3n2)cn1 [Compound 30]	6.00 to 7.00
CCn1cc(-c2cnc3nnn(Cc4cc5c(cnn5CC)s4)c3n2)cn1 [Compound 37]	6.00 to 7.00
CCn1ncc2sc(Cn3nnc4ncc(-c5cnn(CCO)c5)nc43)cc21 [Compound 38]	6.00 to 7.00
CCn1cc(-c2cnc3nnn(Cc4csc5ncccc45)c3n2)cn1 [Compound 41]	6.00 to 7.00
COCCn1cc(-c2cnc3nnn(Cc4ccc5ncnn5c4)c3n2)cn1 [Compound 53]	6.00 to 7.00
c1nc2ccc(Cn3nnc4ncc(-c5cnn(C6CCOCC6)c5)nc43)cn2n1 [Compound 55]	6.00 to 7.00
COc1ccc(-c2cnc3nnn(Cc4ccc5nccn5c4)c3n2)cc1 [Compound 57]	7.00 to 9.00
COCCn1cc(-c2cnc3nnn(Cc4ccc5nccn5c4)c3n2)cn1 [Compound 58]	7.00 to 9.00
COc1ccc(-c2cnc3nnn(Cc4ccc5ncnn5c4)c3n2)cc1 [Compound 59]	7.00 to 9.00
OCCn1cc(-c2ccc3nnn(Cc4ccc5ncccc5c4)c3n2)cn1 [Compound 61]	7.00 to 9.00
Nc1ccc(-c2ccc3nnn(Cc4ccc5ncccc5c4)c3n2)cn1 [Compound 62]	7.00 to 9.00
c1cnc2ccc(Cn3nnc4ccc(-c5ccc(N6CCOCC6)nc5)nc43)cc2c1 [Compound 63]	7.00 to 9.00
c1c[nH]c(-c2ccc3nnn(Cc4ccc5ncccc5c4)c3n2)c1 [Compound 64]	6.00 to 7.00
CCOC(=O)Cn1cc(-c2ccc3nnn(Cc4ccc5ncccc5c4)c3n2)cn1 [Compound 65]	7.00 to 9.00
O=C(O)Cn1cc(-c2ccc3nnn(Cc4ccc5ncccc5c4)c3n2)cn1 [Compound 66]	6.00 to 7.00
COc1ccc(-c2ccc3nnn(Cc4ccc5ncccc5c4)c3n2)cn1 [Compound 70]	7.00 to 9.00
Cn1cc(-c2ccc3nnn(Cc4cc5cnccc5s4)c3n2)cn1 [Compound 71]	6.00 to 7.00
Cn1cc(-c2ccc3nnn(Cc4ccc5ncsc5c4)c3n2)cn1 [Compound 72]	7.00 to 9.00

Structure (SMILES)	pIC50
OCCn1cc(-c2ccc3nnn(Cc4ccc5ncsc5c4)c3n2)cn1 [Compound 73]	6.00 to 7.00
OCCn1cc(-c2ccc3nnn(Cc4cc5cnccc5s4)c3n2)cn1 [Compound 74]	6.00 to 7.00
CNc1ccc(-c2ccc3nnn(Cc4ccc5ncccc5c4)c3n2)cn1 [Compound 76]	7.00 to 9.00
C[C@@H](c1ccc2ncccc2c1)n1nnc2ccc(-c3cnn(CCO)c3)nc21 [Compound 77]	7.00 to 9.00
C[C@H](c1ccc2ncccc2c1)n1nnc2ccc(-c3cnn(CCO)c3)nc21 [Compound 78]	6.00 to 7.00
Cc1ccc(-c2ccc3nnn(Cc4ccc5ncccc5c4)c3n2)cn1 [Compound 79]	6.00 to 7.00
c1cnc2ccc(Cn3nnc4ccc(-n5cccn5)nc43)cc2c1 [Compound 80]	6.00 to 7.00
c1cnc2ccc(Cn3nnc4ccc(-c5cc[nH]n5)nc43)cc2c1 [Compound 81]	7.00 to 9.00
COCCNc1ccc(-c2ccc3nnn(Cc4ccc5ncccc5c4)c3n2)cn1 [Compound 82]	7.00 to 9.00
CNC(=O)c1ccc(-c2ccc3nnn(Cc4ccc5ncccc5c4)c3n2)cn1 [Compound 83]	7.00 to 9.00
CS(=O)(=O)Nc1ccc(-c2ccc3nnn(Cc4ccc5ncccc5c4)c3n2)cc1 [Compound 84]	7.00 to 9.00
CS(=O)(=O)Nc1cccc(-c2ccc3nnn(Cc4ccc5ncccc5c4)c3n2)c1 [Compound 85]	7.00 to 9.00
OCCn1cc(-c2ccc3nnn(Cc4c[nH]c5ncccc45)c3n2)cn1 [Compound 86]	7.00 to 9.00
c1csc(-c2ccc3nnn(Cc4ccc5ncccc5c4)c3n2)c1 [Compound 87]	7.00 to 9.00
COc1cccc(-c2ccc3nnn(Cc4ccc5ncccc5c4)c3n2)c1 [Compound 88]	7.00 to 9.00
CS(=O)(=O)Nc1ccc(-c2ccc3nnn(Cc4ccc5ncccc5c4)c3n2)cn1 [Compound 90]	7.00 to 9.00
CC(=O)Nc1ccc(-c2ccc3nnn(Cc4ccc5ncccc5c4)c3n2)cn1 [Compound 91]	7.00 to 9.00
CNCCCn1cc(-c2ccc3nnn(Cc4ccc5ncccc5c4)c3n2)cn1 [Compound 92]	6.00 to 7.00
COCCn1cc(-c2ccc3nnn(Cc4ccc5ncccc5c4)c3n2)cn1 [Compound 93]	6.00 to 7.00
c1cnc2ccc(Cn3nnc4ccc(-c5cnn(C6CCNCC6)c5)nc43)cc2c1 [Compound 94]	6.00 to 7.00
CCn1cc(-c2ccc3nnn(Cc4ccc5ncccc5c4)c3n2)cn1 [Compound 95]	7.00 to 9.00
COCCOc1cccc(-c2ccc3nnn(Cc4ccc5ncccc5c4)c3n2)c1 [Compound 96]	6.00 to 7.00
COCCOc1ccc(-c2ccc3nnn(Cc4ccc5ncccc5c4)c3n2)cc1 [Compound 97]	7.00 to 9.00
CC(=O)OCCn1cc(-c2ccc3nnn(Cc4ccc5ncccc5c4)c3n2)cn1 [Compound 98]	6.00 to 7.00
COCCOc1ccc(-c2ccc3nnn(Cc4ccc5ncccc5c4)c3n2)cn1 [Compound 99]	6.00 to 7.00

More lines, now with the values ahead:

pIC50	Structure (SMILES)
7.00 to 9.00	COCc1cnc2ccc(C(C)n3nnc4ncc(-c5cnn(C)c5)nc43)cn12 (racemic) [Compound 318, 1-(1-(3-(methoxymethyl)imidazo[1,2-a]pyridin-6-yl)ethyl)-6-(1-methyl-1H-pyrazol-4-yl)-1H-[1,2,3]triazolo[4,5-b]pyrazine]
7.00 to 9.00	CC(c1ccc2ncccc2c1)n1nnc2ccc(-c3cnn(CCO)c3)nc21 (racemic) [Compound 332]
7.00 to 9.00	Cn1cc(-c2cnc3nnn(Cc4c[nH]c5ncccc45)c3n2)cn1 [Compound 1, 1-((1H-Pyrrolo[2,3-b]pyridin-3-yl)methyl)-6-(1-methyl-1H-pyrazol-4-yl)-1H-[1,2,3]-triazolo[4,5-b]pyrazine]
7.00 to 9.00	CCn1cc(-c2cnc3nnn(Cc4ccc5nccn5c4)c3n2)cn1 [Compound 8]
7.00 to 9.00	Cn1cc(-c2cnc3nnn(Cc4ccc5ncsc5c4)c3n2)cn1 [Compound 11]
7.00 to 9.00	OCCn1cc(-c2cnc3nnn(Cc4ccc5ncsc5c4)c3n2)cn1 [Compound 12]
7.00 to 9.00	OCCn1cc(-c2cnc3nnn(Cc4cc5[nH]ncc5s4)c3n2)cn1 [Compound 13]
7.00 to 9.00	COCCn1cc(-c2cnc3nnn(Cc4n[nH]c5ncccc45)c3n2)cn1 [Compound 15]
7.00 to 9.00	CC(c1ccc2ncsc2c1)n1nnc2ncc(-c3cnn(C)c3)nc21 (stereo not shown) [Compound 19]
7.00 to 9.00	CC(c1ccc2ncsc2c1)n1nnc2ncc(-c3cnn(CCO)c3)nc21 (stereo not shown) [Compound 20]
7.00 to 9.00	CC(c1cc2cnccc2s1)n1nnc2ncc(-c3cnn(CCO)c3)nc21 (stereo not shown) [Compound 21]
7.00 to 9.00	O=C(Cn1cc(-c2cnc3nnn(Cc4ccc5ncsc5c4)c3n2)cn1)NC1CC1 [Compound 24]
7.00 to 9.00	CCn1cc(-c2cnc3nnn(Cc4cc5[nH]ncc5s4)c3n2)cn1 [Compound 25]
7.00 to 9.00	CC(C)n1cc(-c2cnc3nnn(Cc4cc5[nH]ncc5s4)c3n2)cn1 [Compound 26]
7.00 to 9.00	N#CCn1cc(-c2cnc3nnn(Cc4cc5[nH]ncc5s4)c3n2)cn1 [Compound 27]
7.00 to 9.00	CC(C)n1cc(-c2cnc3nnn(Cc4ccc5nccn5c4)c3n2)cn1 [Compound 34]
7.00 to 9.00	N#CCn1cc(-c2cnc3nnn(Cc4ccc5nccn5c4)c3n2)cn1 [Compound 35]
7.00 to 9.00	FC(F)(F)Cn1cc(-c2cnc3nnn(Cc4cc5[nH]ncc5s4)c3n2)cn1 [Compound 42]
7.00 to 9.00	c1n[nH]cc1-c1cnc2nnn(Cc3cc4[nH]ncc4s3)c2n1 [Compound 44]
7.00 to 9.00	COCCn1cc(-c2cnc3nnn(Cc4cc5[nH]ncc5s4)c3n2)cn1 [Compound 45]
7.00 to 9.00	c1cn2cc(Cn3nnc4ncc(-c5cnn(C6CCNCC6)c5)nc43)ccc2n1 [Compound 46]
7.00 to 9.00	CCCn1cc(-c2cnc3nnn(Cc4ccc5nccn5c4)c3n2)cn1 [Compound 47]
7.00 to 9.00	CCn1cc(-c2cnc3nnn(Cc4n[nH]c5ncccc45)c3n2)cn1 [Compound 49]
7.00 to 9.00	FC(F)(F)Cn1cc(-c2cnc3nnn(Cc4ccc5ncnn5c4)c3n2)cn1 [Compound 52]
7.00 to 9.00	OCCn1cc(-c2cnc3nnn(Cc4ccc5ncnn5c4)c3n2)cn1 [Compound 54]
